Series [1] concerns the target Sodium-dependent serotonin transporter (Homo sapiens) (UniProt P31645). The series can be described thus: Displacement of [3H]-imipramine from recombinant human 5-HT transporter at 10 uM after 60 mins by scintillation counting relative to control.
A short description of series [2]: Plasma clearance in Sprague-Dawley rat at 0.2 to 0.25 mg/kg, iv measured upto 24 hrs by LC/MS/MS analysis. The format is ADME, organism-based. As to conditions: dose 0.2-0.25 mg/kg.
Series [3] deals with D(2) dopamine receptor (Homo sapiens) (UniProt P14416). Put plainly: Displacement of [3H]7-OH-DPAT from human recombinant dopamine D2S receptor at 10 uM after 60 mins by scintillation counting analysis relative to control.
D(2) dopamine receptor (Homo sapiens), sequence (P14416 whole entry): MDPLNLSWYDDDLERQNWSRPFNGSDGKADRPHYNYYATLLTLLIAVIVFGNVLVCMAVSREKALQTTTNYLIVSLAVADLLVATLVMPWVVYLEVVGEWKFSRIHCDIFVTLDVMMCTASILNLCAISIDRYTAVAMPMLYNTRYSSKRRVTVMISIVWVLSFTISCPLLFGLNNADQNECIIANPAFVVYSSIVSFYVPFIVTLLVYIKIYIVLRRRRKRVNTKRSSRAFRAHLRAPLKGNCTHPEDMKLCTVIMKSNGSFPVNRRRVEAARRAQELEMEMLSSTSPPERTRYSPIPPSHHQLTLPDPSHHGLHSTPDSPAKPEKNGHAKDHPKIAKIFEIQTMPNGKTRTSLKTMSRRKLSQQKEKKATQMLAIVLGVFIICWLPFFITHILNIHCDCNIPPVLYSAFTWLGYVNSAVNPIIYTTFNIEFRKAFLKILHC
A further series concerns Cricetinae. The series can be described thus: Displacement of [3H]-Glyburide from hamster potassium channel at 10 uM incubated for 120 mins by scintillation counting analysis relative to control.
Series [4] has as its target Melatonin receptor type 1A (Homo sapiens) (UniProt P48039). Put plainly: Displacement of [125I][…] from human recombinant MT1 receptor at 10 uM after 240 mins by scintillation counting analysis relative to control.
Series [5] deals with dopamine transporter (DAT) (Homo sapiens, UniProt Q01959). The series can be described thus: Displacement of […] from recombinant human Dopamine transporter at 10 uM after 120 mins by scintillation counting analysis relative to control. In kind it is ADME.
In series [6] the target is Alpha-1B adrenergic receptor (Homo sapiens) (UniProt P35368). Put plainly: Displacement of [3H]-Prazosin from human recombinant adrenergic alpha 1B receptor at 10 uM incubated for 60 mins by scintillation counting analysis relative to control.
Alpha-1B adrenergic receptor (Homo sapiens), sequence (P35368 whole entry): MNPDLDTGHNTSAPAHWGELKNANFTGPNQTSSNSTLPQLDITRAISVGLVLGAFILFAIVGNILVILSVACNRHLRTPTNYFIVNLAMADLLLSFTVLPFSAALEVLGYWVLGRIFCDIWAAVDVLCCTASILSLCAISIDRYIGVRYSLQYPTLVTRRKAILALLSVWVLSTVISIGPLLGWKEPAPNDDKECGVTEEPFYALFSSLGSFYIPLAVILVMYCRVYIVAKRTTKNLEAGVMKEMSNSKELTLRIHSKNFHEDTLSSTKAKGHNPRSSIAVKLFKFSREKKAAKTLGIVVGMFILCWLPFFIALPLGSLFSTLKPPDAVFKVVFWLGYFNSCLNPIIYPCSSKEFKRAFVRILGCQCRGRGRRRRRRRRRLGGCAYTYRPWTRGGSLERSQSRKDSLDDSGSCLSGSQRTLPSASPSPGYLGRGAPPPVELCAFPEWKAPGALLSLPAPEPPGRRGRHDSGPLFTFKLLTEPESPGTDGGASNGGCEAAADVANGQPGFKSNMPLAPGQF
Series [7] addresses Metabotropic glutamate receptor 7 (Rattus norvegicus, UniProt P35400). Put plainly: Positive allosteric modulation of rat mGlu7 expressed in HEK293 cells co- expressing GIRK assessed as potentiation of L-AP4-induced thallium flux incubated for 140 sec by FluoZin2-AM dye based fluorescence analysis. In kind it is cell-based.
The target of the next series is hERG (KCNH2) (Homo sapiens, UniProt Q12809). The series can be described thus: Displacement of [3H]-Astemizole from human recombinant full length ERG channel at 10 uM incubated for 60 mins by scintillation counting analysis relative to control. As to conditions: probe [3H]-astemizole.
Series [8] is described as follows: Half-life in Sprague-Dawley rat at 0.2 to 0.25 mg/kg, iv measured upto 24 hrs by LC/MS/MS analysis. In kind it is ADME, organism-based. As to conditions: in vivo, dose 0.2-0.25 mg/kg.
The target in series [9] is Adenosine receptor A2a (Homo sapiens) (UniProt P29274). The series can be described thus: Displacement of [3H]-CGS 21680 from human recombinant adenosine A2A receptor at 10 uM after 120 mins by scintillation counting analysis relative to control.
Adenosine receptor A2a (Homo sapiens), sequence (P29274 whole entry): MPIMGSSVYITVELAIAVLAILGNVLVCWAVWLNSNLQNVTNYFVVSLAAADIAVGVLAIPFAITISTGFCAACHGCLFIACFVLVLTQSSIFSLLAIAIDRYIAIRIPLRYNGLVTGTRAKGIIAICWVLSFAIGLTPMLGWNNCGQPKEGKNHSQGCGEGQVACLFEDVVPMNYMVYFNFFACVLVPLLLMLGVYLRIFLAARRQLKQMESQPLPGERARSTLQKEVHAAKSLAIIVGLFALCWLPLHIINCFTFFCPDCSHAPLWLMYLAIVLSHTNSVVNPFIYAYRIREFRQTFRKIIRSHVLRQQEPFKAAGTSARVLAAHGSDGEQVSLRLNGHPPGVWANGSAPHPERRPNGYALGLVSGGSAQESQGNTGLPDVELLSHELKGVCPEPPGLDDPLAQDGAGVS
Series [10] concerns the target Platelet-activating factor receptor (Homo sapiens) (UniProt P25105). Put plainly: Displacement of [3H]-C18-PAF from human PAF receptor at 10 uM incubated for 180 mins by scintillation counting analysis relative to control.
The species named for the next series is Mus musculus. Put plainly: Displacement of [3H]-PDBu from mouse phorbol ester receptor at 10 uM incubated for 60 mins by scintillation counting analysis relative to control.
Series [11] can be described thus: Volume of distribution at steady state in Sprague-Dawley rat at 0.2 to 0.25 mg/kg, iv measured upto 24 hrs by LC/MS/MS analysis. In kind it is ADME, organism-based. As to conditions: in vivo, dose 0.2-0.25 mg/kg, read-out: Vdss.
Series [12] has as its target Endothelin-1 receptor (Homo sapiens) (UniProt P25101). The series can be described thus: Displacement of [125I]-endothelin-1 from human recombinant ETA receptor at 10 uM after 120 mins by scintillation counting analysis relative to control.
The target in series [13] is 5-hydroxytryptamine receptor 3A (Homo sapiens) (UniProt P46098). The series can be described thus: Displacement of [3H]BRL 43694 from human recombinant 5-HT3 receptor at 10 uM after 120 mins by scintillation counting analysis relative to control.
5-hydroxytryptamine receptor 3A (Homo sapiens), sequence (P46098 whole entry): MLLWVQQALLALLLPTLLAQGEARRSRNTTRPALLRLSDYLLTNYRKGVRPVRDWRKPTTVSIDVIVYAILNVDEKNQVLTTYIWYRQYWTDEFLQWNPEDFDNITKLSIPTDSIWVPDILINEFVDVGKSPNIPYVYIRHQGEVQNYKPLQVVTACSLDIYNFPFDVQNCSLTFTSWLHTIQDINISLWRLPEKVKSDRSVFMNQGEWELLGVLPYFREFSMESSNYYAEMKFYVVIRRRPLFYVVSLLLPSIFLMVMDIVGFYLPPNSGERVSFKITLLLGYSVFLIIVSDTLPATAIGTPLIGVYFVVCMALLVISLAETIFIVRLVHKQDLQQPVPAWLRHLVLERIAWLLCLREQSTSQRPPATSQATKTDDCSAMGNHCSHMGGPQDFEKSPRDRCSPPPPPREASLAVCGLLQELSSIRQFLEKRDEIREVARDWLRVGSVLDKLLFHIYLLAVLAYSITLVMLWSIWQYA
A short description of series [14]: Hepatic intrinsic clearance in mouse liver microsomes at 1 uM preincubated for 5 mins followed by NADPH addition and measured up to 45 mins by LC-MS/MS analysis. The format is ADME, Microsome. As to conditions: read-out: CLH.
A short description of series [15]: Hepatic intrinsic clearance in rat liver microsomes at 1 uM preincubated for 5 mins followed by NADPH addition and measured up to 45 mins by LC-MS/MS analysis. As to conditions: read-out: CLH. The format is ADME, Microsome.
Series [16] has as its target Metabotropic glutamate receptor 7 (Homo sapiens) (UniProt Q14831). Put plainly: Agonist activity at human mGlu7 receptor. As to conditions: tested as the 2H-labelled form.
For series [17] the target is unchanged. Put plainly: Positive allosteric modulation of human mGlu7 receptor. As to conditions: filed as positive allosteric modulator; tested as the 2H-labelled form.

Activity calls are given as the source filed them. The calls are words filed in the database; no cut-off is given here. Where only a bound is given, the exact number is not on record here.

Endothelin-1 receptor (Homo sapiens), sequence (P25101 whole entry): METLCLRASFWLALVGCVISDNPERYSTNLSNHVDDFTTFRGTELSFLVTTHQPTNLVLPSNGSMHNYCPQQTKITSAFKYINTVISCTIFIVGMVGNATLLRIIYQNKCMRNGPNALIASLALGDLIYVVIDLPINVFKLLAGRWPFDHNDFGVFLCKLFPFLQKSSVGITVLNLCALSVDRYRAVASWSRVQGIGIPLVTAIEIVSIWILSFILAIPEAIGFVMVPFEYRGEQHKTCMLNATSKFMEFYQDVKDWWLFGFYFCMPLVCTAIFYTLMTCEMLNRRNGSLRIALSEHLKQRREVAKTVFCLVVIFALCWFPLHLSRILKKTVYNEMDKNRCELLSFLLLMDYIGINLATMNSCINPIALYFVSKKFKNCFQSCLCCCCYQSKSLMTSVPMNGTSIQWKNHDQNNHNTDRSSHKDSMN
Platelet-activating factor receptor (Homo sapiens), sequence (P25105 whole entry): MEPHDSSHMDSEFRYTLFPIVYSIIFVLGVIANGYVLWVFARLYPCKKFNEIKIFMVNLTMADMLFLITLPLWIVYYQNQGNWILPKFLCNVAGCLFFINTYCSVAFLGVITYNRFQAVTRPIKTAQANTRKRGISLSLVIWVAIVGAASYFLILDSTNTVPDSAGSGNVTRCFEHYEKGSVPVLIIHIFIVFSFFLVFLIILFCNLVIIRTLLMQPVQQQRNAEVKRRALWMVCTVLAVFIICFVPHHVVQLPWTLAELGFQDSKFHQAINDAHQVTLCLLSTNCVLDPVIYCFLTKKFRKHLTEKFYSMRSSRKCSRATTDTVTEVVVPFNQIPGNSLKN
Sodium-dependent serotonin transporter (Homo sapiens), sequence (P31645 whole entry, looked up): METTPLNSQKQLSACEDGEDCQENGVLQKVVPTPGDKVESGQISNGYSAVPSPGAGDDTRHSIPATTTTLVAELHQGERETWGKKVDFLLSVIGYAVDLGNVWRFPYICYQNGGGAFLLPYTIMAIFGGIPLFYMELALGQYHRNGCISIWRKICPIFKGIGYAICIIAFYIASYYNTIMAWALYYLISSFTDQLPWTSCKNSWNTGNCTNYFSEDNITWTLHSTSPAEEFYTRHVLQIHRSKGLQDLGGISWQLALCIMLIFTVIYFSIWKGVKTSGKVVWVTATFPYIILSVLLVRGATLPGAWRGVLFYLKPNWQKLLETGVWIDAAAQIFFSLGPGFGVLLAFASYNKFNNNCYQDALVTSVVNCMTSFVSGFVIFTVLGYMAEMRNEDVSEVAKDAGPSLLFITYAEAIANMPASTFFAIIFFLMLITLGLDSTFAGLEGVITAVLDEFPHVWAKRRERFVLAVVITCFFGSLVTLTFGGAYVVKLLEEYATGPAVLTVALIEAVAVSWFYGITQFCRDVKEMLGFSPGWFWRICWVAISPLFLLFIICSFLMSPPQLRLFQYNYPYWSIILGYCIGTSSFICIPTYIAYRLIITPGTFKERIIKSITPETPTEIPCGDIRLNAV
Metabotropic glutamate receptor 7 (Homo sapiens), sequence (Q14831 whole entry): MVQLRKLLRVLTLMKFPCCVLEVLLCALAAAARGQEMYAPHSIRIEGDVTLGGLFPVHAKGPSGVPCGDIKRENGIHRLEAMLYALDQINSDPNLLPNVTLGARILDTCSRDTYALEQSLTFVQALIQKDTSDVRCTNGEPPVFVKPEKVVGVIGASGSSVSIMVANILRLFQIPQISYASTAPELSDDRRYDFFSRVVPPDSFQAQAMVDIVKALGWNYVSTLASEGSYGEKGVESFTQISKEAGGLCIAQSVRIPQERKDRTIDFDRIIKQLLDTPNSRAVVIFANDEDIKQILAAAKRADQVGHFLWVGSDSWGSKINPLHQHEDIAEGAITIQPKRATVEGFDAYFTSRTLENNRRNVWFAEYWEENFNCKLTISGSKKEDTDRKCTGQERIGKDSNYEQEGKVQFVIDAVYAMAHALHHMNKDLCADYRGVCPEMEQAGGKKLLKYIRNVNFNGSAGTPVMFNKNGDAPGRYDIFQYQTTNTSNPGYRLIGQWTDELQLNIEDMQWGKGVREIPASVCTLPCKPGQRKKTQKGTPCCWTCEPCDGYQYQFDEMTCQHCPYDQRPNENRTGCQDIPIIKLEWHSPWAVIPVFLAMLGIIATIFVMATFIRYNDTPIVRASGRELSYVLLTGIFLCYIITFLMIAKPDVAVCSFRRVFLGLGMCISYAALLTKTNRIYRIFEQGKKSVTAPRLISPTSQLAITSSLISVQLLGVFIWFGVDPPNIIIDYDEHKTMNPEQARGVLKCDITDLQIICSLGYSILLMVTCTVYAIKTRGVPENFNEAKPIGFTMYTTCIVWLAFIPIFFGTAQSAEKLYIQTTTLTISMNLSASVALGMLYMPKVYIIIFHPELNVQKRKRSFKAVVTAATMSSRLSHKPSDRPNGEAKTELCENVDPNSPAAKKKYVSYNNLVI
Melatonin receptor type 1A (Homo sapiens), sequence (P48039 whole entry): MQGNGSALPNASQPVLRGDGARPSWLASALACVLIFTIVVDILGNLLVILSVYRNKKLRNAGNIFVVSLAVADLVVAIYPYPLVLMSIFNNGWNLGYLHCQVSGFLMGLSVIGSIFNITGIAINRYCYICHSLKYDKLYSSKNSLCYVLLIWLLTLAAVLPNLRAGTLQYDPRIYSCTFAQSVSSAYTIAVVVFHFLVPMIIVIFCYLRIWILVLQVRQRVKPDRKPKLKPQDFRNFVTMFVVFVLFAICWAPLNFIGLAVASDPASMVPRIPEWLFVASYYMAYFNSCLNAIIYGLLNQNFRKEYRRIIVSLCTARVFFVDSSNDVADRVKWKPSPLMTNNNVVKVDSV
Metabotropic glutamate receptor 7, sequence (P35400 whole entry): as the sequence (Q14831 whole entry) above, with R5G, A27V, N454H, S488T, A520S, D578N counted along it

Consider `COc1cccc2c(N3CCN(c4ccccc4F)CC3)c(C#N)cnc12`, for which the inhibition (in series [1]; in [3]; with Cricetinae; in [4]; in series [6]; in series [9]) was less than 50% each time. Besides, the inhibition (in series [10]; in the series listed under Mus musculus; in series [12]; in [13]) was less than 50% throughout. The compound further gave a clearance in series [2] of 47.5 mL/min/kg. Besides, the inhibition at 2 h, 10 µM in series [5] turned out to be 85%. Besides, in series [7], the EC50 turned out to be 879 nM. In addition, the inhibition at 1 h, 10 µM at hERG (KCNH2) is less than 50%. This compound also had a half-life in [8] of 45 min. The Vd in [11] amounted to 4.1 L/kg.

Regarding `COc1cc(F)cc2c(N3CCN(c4ccccc4F)CC3)c(C#N)cnc12`, the inhibition (in [1] (tested as the 2H-labelled form); in series [3] (tested as the 2H-labelled form); in the series on Cricetinae (tested as the 2H-labelled form); in series [4] (tested as the 2H-labelled form); in [6] (tested as the 2H-labelled form); in series [9] (tested as the 2H-labelled form)) was less than 50% each time. Further, the inhibition (in [10] (tested as the 2H-labelled form); in the series filed under Mus musculus (tested as the 2H-labelled form); in series [12] (tested as the 2H-labelled form); in [13] (tested as the 2H-labelled form)) was less than 50% throughout. Besides, the CLint scaled at 1 µM was found to be 87 mL/min/kg in [14] and 56 mL/min/kg in series [15]. Further, the result in series [16] was inactive. The result in series [17] was Active.

The values above are taken from ChEMBL document CHEMBL4665820, “Discovery of VU6027459: A First-in-Class Selective and CNS Penetrant mGlu Positive Allosteric Modulator Tool Compound” (ACS Med Chem Lett, 2020).
